Laboratory results reported in patent publication US20090270490A1, “METHODS INVOLVING ALDOSE REDUCTASE INHIBITION” (THE BOARD OF REGENTS OF THE UNIVERSITY OF TEXAS SYSTEM, priority 2008, published 2009).

How the values were obtained:
[1] = test system: lens epithelial cells in pig eye capsular bags; assay: Lens epithelial cell growth in pig eye capsular bags (trypan blue cell counting); assay type: cell-based; details: 7 days culture
Protocol: (§1) Pig eye capsular bags were prepared by phacoemulsification followed by capsulorhexis and incubated in Dulbecco's Modified Eagle's Medium (DMEM) supplemented with 10% FBS and 1% penicillin and streptomycin without or with AR inhibitors, sorbinil (50 μM) and fidarestat (10-30 μM) for 7 days in 5% CO2 condition at 37° C. Medium was replaced with fresh medium without or with AR inhibitors every day. At the end of incubation, capsular bags were examined under the dissection microscope, cut into four pieces and flat mounted on glass slide with cellular side facing up. The pieces of capsular bags were fixed with 4% paraformaldehyde for 3-4 h at 4° C. After fixation, they were washed, transferred to 70% alcohol and stored at 4° C. until used for immunohistochemical analysis.
The pig eye capsular bags were incubated for 7 days as described above. The lens epithelial cells were detached from capsular bags by incubating with 0.25% trypsin-EDTA solution. The trypsinized cells were harvested, washed with PBS and re-suspended in PBS. To determine cell growth, equal volumes of cell suspension and trypan blue were mixed and the cells which excluded trypan blue dye were counted manually by using a hemocytometer.
Phacoemulsification technique for cataract surgery in humans was used to operate enucleated pig eyes. After removing the lens, a capsular tension ring was inserted in the capsular bag. The capsular bag was then cultured in complete growth-medium without or with AR inhibitors. […] After 7 days in culture, the ring was removed and the cells were harvested by trypsinization. The harvested cells were counted using trypan blue exclusion principle.

[2] = test system: NF-κB DNA binding; assay: Electrophoretic mobility shift assay (EMSA) of NF-κB in HLEC; assay type: cell-based, human; details: inhibitor 20 μM, no b-FGF
Protocol: Adenovirus SV-40 viral DNA-transformed human lens epithelial cells (HLE-B3; HLEC) were purchased from ATCC. Cells were maintained in DMEM supplemented with 20% heat-inactivated FBS, and 50 μg/ml gentamicin. The cells were grown in a humidified incubator at 37° C. and 5% CO2. The HLEC were pretreated with 20 μM of AR inhibitors sorbinil or zopolrestat for overnight in medium containing 0.5% FBS followed by stimulation with various concentrations (0-100 ng/mL) of b-FGF for 24 h and cell viability and expression of α-SMA, β-crystallin and ICAM-1 was quantified. To investigate the effect of b-FGF on NF-κB and MAPK activation, HLEC were starved in medium containing 0.5% FBS with or without AR inhibitors for overnight. The cells were washed with serum-free medium followed by incubation in serum-free medium without or with AR inhibitor containing 50 ng/mL b-FGF for different time intervals.
The HLEC in 150 cm^2 culture flasks were pretreated without or with AR inhibitors for 24 h in serum-free medium, followed by treatment with b-FGF (50 ng/ml) for 1 h at 37° C. The nuclear extracts were prepared as described earlier (Ramana et al., 2003). The Consensus oligonucleotides for NF-κB transcription factors were 5′-end labeled using T4 polynucleotide kinase. EMSA was performed as described earlier (Ramana et al., 2003.). […]

[3] = test system: α-SMA, β-crystallin and ICAM-1 expression; assay: Immunohistochemical analysis of flat-mounted pig eye capsular bags; assay type: cell-based; details: 7 days of culture; sorbinil 50 μM, fidarestat 30 μM
Protocol: as §1
The capsular bag specimens flat mounted on slides were washed thrice with PBS and incubated with blocking solution containing 2% BSA, 0.1% Triton-X100, 5% normal goat serum for 1 h at room temperature. Subsequently specimens were washed, incubated with antibodies against α-SMA, β-crystallin, PCNA, and ICAM-1 for 1 h at room temperature. The slides were stained with either LSAB-HRP system (Dako, Carpinteria, Calif.) or incubated with respective FITC labeled secondary antibodies. The samples were examined by using Nikon epifluoroscence microscope (EPI-800 microscope) connected to a computer with Metamorph software.

Compound | inhibition at 50 µM ([1]; Sus scrofa, Epithelial cell, 168 h, sorbinil 50 μM, pig eye capsular bags, vs control) [%] | basal activity of NF-κB with inhibitor alone [2] | expression of α-SMA and β-crystallin in capsular bags (immunohistochemistry) [3] | most effective dose at which LEC growth was significantly (p<0.001) inhibited ([1]; doses 10-30 μM tested) [µM] | inhibiting the growth of LEC in pig eye capsular bags ([1]; fidarestat 10-30 μM)
O=C1NC(=O)[C@@]2(CCOc3ccc(F)cc32)N1 [sorbinil, (S)-6-fluoro-2,3-dihydrospiro[4H-1-benzopyran-4,4′-imidazolidine]-2′,5′-dione] | ~74 | did not affect | only few cells expressed α-SMA and β-crystallin |  | 
O=C(O)Cc1nn(Cc2nc3cc(C(F)(F)F)ccc3s2)c(=O)c2ccccc12 [zopolrestat] |  | did not affect |  |  | 
NC(=O)[C@@H]1C[C@]2(NC(=O)NC2=O)c2cc(F)ccc2O1 [fidarestat, (2S,4S)-2-aminoformyl-6-fluoro-spiro[chroman-4,4′-imidazolidine]-2′,5′-dione] |  |  |  | 30 | dose-dependent response
